Our source for the viability, T/C and IC50 values is PubChem BioAssay AID2060494 (Molecular Pharmacology Branch, DTP, NCI, 2025).

Where “and” joins values, the source holds several entries; their conditions need not be identical. Equal entries are not always repeated.

The test concerns 435261-313-R-J1-PDC complex spheroid viability. Put plainly: Anticancer human tumor 435261-313-R-J1-PDC patient-derived colon adenocarcinoma cell line growth inhibition [GQUAD]. The note with it: for viability, T/C: stronger effect = lower value; for IC50: curve of compound. From the text: DNA G-quadruplex Stabilizer Agents in Combinations in Complex Spheroids
A high-throughput screen of multi-cell type tumor spheroids was designed to identify active combinations of DNA G-quadruplex stabilizer agents and targeted small molecules. Complex spheroids include a stromal component modeled by human endothelial cells (HUVEC) and fibroblasts modeled by human mesenchymal stem cells (MSCs). The concentration ranges selected for each drug and investigational agent were based upon clinically achievable concentrations if the clinical Cmax of the agent was known.
Compounds. The drugs and investigational agents: pidnarulex (CX-5461; NSC782164), APTO-253 (NSC789042), BRACO-19 (NSC847499), peposertib (NSC802822), ceralasertib (NSC780249), elimusertib (NSC800525), camonsertib (NSC841442), AZD-1390 (NSC803789), olaparib (NSC753686), talazoparib (NSC767125), ART-558 (NSC835418), sotorasib (NSC818433), MRTX-1133 (NSC836407), SN-38 (NSC673596), topotecan (NSC609699), etoposide (NSC141540), doxorubicin (NSC123127), gemcitabine (NSC613327), 5-fluorouracil (NSC19893), paclitaxel (NSC125973), vemurafenib (NSC761431), panobinostat (NSC761190), R-306465 (JNJ-16241199; NSC773264), adavosertib (NSC754352), TP-3654 (NSC805149), carboplatin (NSC241240), KSQ-4279 (NSC840948), and staurosporine (NSC755774) were obtained from the National Cancer Institute (NCI) Developmental Therapeutics Program Chemical Repository (34). The FDA-approved anticancer drug set is available from the NCI Developmental Therapeutics Program. […] The stock solutions were prepared in dimethyl sulfoxide (DMSO, Sigma-Aldrich, St. Louis, MO, cat. D2650) at 800-fold the tested concentration and stored at -70 degrees C prior to their use. All drugs and investigational agents were tested over a range starting from a high concentration at or near the clinical Cmax and decreasing in half-log increments. If the clinical Cmax for an agent had not been determined, the highest concentration tested was 10 microM.
2.3 Cell Culture. All cells were maintained in an incubator at 37 degrees C and 5% CO2 with 95% humidity. The PDC lines were cultured according to standard operating procedures established by the NCI PDMR. All PDCs were thawed and cultured in Matrigel-coated flasks prepared with a working solution of 1X Ham's F-12 nutrient mix, without supplementation (Invitrogen, cat. 11765054), 100 U/mL penicillin-streptomycin (Invitrogen, cat. 15140122), and 2.5% Matrigel (Corning Inc., cat. 354248) for the first three passages. The 857933-349-R-J2-PDC line was cultured in 6C/Colon 1B media, which includes advanced DMEM/F-12 (Thermo Fisher Scientific, cat. 12634028), 10 mM HEPES (Thermo Fisher Scientific, cat. 15630080), 1X GlutaMAX supplement (Thermo Fisher Scientific, cat. 35050061), 0.1 mg/mL primocin (InvivoGen, cat. ant-pm-2), 10% defined fetal bovine serum, heat inactivated (HyClone Laboratories Inc., cat. SH30070.03HI), 50% L-WRN conditioned media (ATCC, cat. CRL-3276), 1.25 mM N-Acetyl-L-cysteine (Sigma-Aldrich, cat. A9165), 10 mM nicotinamide (Sigma-Aldrich, cat. N0636), 1X B-27 supplement (Thermo Fisher Scientific, cat. 17504044), 1X N-2 supplement (Thermo Fisher Scientific, cat. 17502048), 10 microM Y-27632 dihydrochloride (Tocris Bioscience, cat. 1254), and 50 ng/mL human EGF recombinant protein (Thermo Fisher Scientific, cat. PHG0311). The 485176-168-R4-J1-PDC line was cultured in Panc media, which includes all 6C/Colon 1B media components plus 100 ng/mL human FGF-10 (Thermo Fisher Scientific, cat. 100-26), 500 nM SB-431542 (Selleckchem, cat. S1067), and gastrin (Tocris, cat. 3006).
[…]
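Also: spheroids exposed to the agents for seven days before readout.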
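For viability, T/C in this document: percent of vehicle control viability with DMSO wells as 100%.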

Broadly, the viability, T/C is the ratio of treated to control. In general, IC50 refers to the point on the concentration scale where inhibition reaches its midpoint. With `C#Cc1c(F)ccc2cc(O)cc(-c3ncc4c(N5CC6CCC(C5)N6)nc(OCC56CCCN5CC(F)C6)nc4c3F)c12` (stereo not drawn), the IC50 was > 10 µM and 6.01 µM. For the setting “compound 0.0316 µM”, the viability, T/C is 108% and 99.7% and 99.5%. Besides, where the note is “compound 0.1 µM”, the viability, T/C was 99.8% and 93.3% and 92.1%. The viability, T/C (compound 0.316 µM) was 92.1% and 98.2% and 99.7%. Also, where the note is “compound 1 µM”, the viability, T/C is 80.9% and 54.3% and 80.5%. Also, the viability, T/C (compound 3.16 µM) was 51.5% and 76.6% and 64.6%. Further, for the setting “compound 10 µM”, the viability, T/C was 57.3% and 53.5% and 39.1%.
Regarding `C=CC(=O)N1CCN(c2nc(=O)n(-c3c(C)ccnc3C(C)C)c3nc(-c4c(O)cccc4F)c(F)cc23)C(C)C1` (stereo not drawn), the IC50 is over 10 µM. The viability, T/C (compound 0.0316 µM) was 113% and 111% and 86%. Further, the viability, T/C (compound 0.1 µM) was 96% and 101% and 88.2%. Besides, where the note is “compound 0.316 µM”, the viability, T/C is 127% and 125% and 132%. In addition, the viability, T/C (compound 1 µM) is 106% (2×) and 75.7%. The viability, T/C (compound 3.16 µM) is 134% and 124% and 116%. Moreover, under “compound 10 µM”, the viability, T/C is 110% and 131% and 101%.
Turning to `CC(=O)O[C@H]1C(=O)[C@@]2(C)[C@H]([C@H](OC(=O)c3ccccc3)[C@]3(O)C[C@H](OC(=O)[C@H](O)[C@@H](NC(=O)c4ccccc4)c4ccccc4)C(C)=C1C3(C)C)[C@]1(OC(C)=O)CO[C@@H]1C[C@@H]2O`, the viability, T/C by setting is: (compound 0.0316 µM) 92.9% and 82.9% and 90.8%; (compound 0.1 µM) 76.1% and 66.3% and 52.6%; (compound 0.316 µM) 68.9% and 81.9% and 51.9%; (compound 1 µM) 68.7% and 43.9% and 69.8%; (compound 3.16 µM) 68.5% and 44.5% and 67.8%; (compound 10 µM) 65.1% and 53.1% and 63.9%.
For `CC(C)n1c(=O)n(C)c2cnc3cc(F)c(-c4ccc(OCCCN5CCCCC5)nc4)cc3c21`, the IC50 was 5.9 µM and 7.09 µM. The viability, T/C (compound 0.0316 µM) is 94.4% and 102%. Moreover, the viability, T/C (compound 0.1 µM) was 88% and 71.4%. The viability, T/C (compound 0.316 µM) was 109% and 113%. The viability, T/C (compound 1 µM) is 81.4% and 57.3%. For the same compound, under “compound 3.16 µM”, the viability, T/C is 65.6% and 84.4%. The viability, T/C (compound 10 µM) was 37.7% and 38.4%.
For the compound `CC1COCCN1c1cc(-c2ccnn2C)c2ccnc(-c3ccn[nH]3)c2n1` (stereo not drawn), the IC50 is 0.321 µM and 0.203 µM. For the same compound, the viability, T/C (compound 0.0316 µM) is 67.8% and 99.2%. Under “compound 0.1 µM”, the viability, T/C is 53.6% and 47.4%. For the same compound, the viability, T/C (compound 0.316 µM) was 52.6% and 55.7%. Also, the viability, T/C (compound 1 µM) was 38.4% and 36.9%. Further, for the setting “compound 3.16 µM”, the viability, T/C was 37.2% and 32.5%. Moreover, the viability, T/C (compound 10 µM) is 20.3% and 19.5%.
Consider `CC1COCCN1c1cc(C2(O)CC3CCC(C2)O3)c2cnn(-c3ccn[nH]3)c2n1` (stereo not drawn), for which the IC50 was 0.259 µM and 0.174 µM. Also, where the note is “compound 0.0316 µM”, the viability, T/C is 85.4% and 89.4%. Moreover, where the note is “compound 0.1 µM”, the viability, T/C was 58.9% and 54.2%. For the same compound, under “compound 0.316 µM”, the viability, T/C was 49.8% and 43.1%. Also, the viability, T/C (compound 1 µM) is 29.2% and 27%. The viability, T/C (compound 3.16 µM) was 26.7% and 20.5%. Further, under “compound 10 µM”, the viability, T/C is 9.56% and 9.97%.
On to `CC1COCCN1c1cc(C2(S(C)(=N)=O)CC2)nc(-c2ccnc3[nH]ccc23)n1` (stereo not drawn), for which the IC50 is > 10 µM and 2.92 µM. Under “compound 0.0316 µM”, the viability, T/C is 98.5% and 112% and 88.4%. Besides, the viability, T/C (compound 0.1 µM) was 87.1% and 109% and 69.1%. Also, the viability, T/C (compound 0.316 µM) was 88.4% and 79.8% and 94%. The viability, T/C (compound 1 µM) was 83.2% and 81.4% (2×). For the setting “compound 3.16 µM”, the viability, T/C was 65.6% and 80.9% and 47.6%. Under “compound 10 µM”, the viability, T/C was 51.2% and 79.8% and 42%.
Consider `CCCS(=O)(=O)Nc1ccc(F)c(C(=O)c2c[nH]c3ncc(-c4ccc(Cl)cc4)cc23)c1F`, for which the IC50 was 4.25 µM and 5.71 µM. Also, the viability, T/C (compound 0.0316 µM) was 105% and 95%. Besides, the viability, T/C (compound 0.1 µM) is 69.6% and 103%. Besides, the viability, T/C (compound 0.316 µM) is 118% and 139%. Moreover, the viability, T/C (compound 1 µM) was 82.9% and 104%. Also, the viability, T/C (compound 3.16 µM) is 63.1% and 88.8%. Further, the viability, T/C (compound 10 µM) is 14.7% and 13.4%.
For `CC[C@@]1(O)C(=O)OCc2c1cc1n(c2=O)Cc2cc3c(CN(C)C)c(O)ccc3nc2-1`, the IC50 is over 0.316 µM. Besides, the viability, T/C (compound 0.000999 µM) is 126% and 101% and 118%. Further, the viability, T/C (compound 0.00316 µM) is 61.6% and 94.8% and 94.1%. Also, the viability, T/C (compound 0.00999 µM) was 96.5% and 98.2% and 110%. Moreover, the viability, T/C (compound 0.0316 µM) was 85.8% and 74.4% and 89.1%. Also, the viability, T/C (compound 0.0999 µM) is 75.2% and 72.1% and 83.8%. Further, the viability, T/C (compound 0.316 µM) was 59% and 68.4% and 67.3%.
For `CCc1c2c(nc3ccc(O)cc13)-c1cc3c(c(=O)n1C2)COC(=O)[C@]3(O)CC`, the viability, T/C by setting is: (compound 0.000999 µM) 92.5% and 68.7% and 82%; (compound 0.00316 µM) 48.6% and 84.6% and 53.4%; (compound 0.00999 µM) 66.8% and 82.9% and 63.2%; (compound 0.0316 µM) 48.6% and 83.2% and 48.7%; (compound 0.0999 µM) 44% and 53.8% and 41.1%; (compound 0.316 µM) 30.8% and 54.3% and 25.1%.
